Laboratory results: PMC11210663 (Emerging Infectious Diseases, 2024)

Test system: influenza A(H1N1)pdm09 viruses tested during the 2022–23 influenza season
Type: biochemical, influenza A(H1N1)pdm09 virus
Conditions: read-out: NA inhibitors median IC50 2022–2023 (reference)

`CCC(CC)[C@H](NC(C)=O)[C@@H]1[C@H](O)[C@@H](C(=O)O)C[C@H]1N=C(N)N` [Peramivir, peramivir] showed an IC50 of 0.07 nM.
